Where a name gives a salt, the structure may show the parent alone.
melting point	SMILES
90 °C	Cc1[nH]n(-c2ccccn2)c(=O)c1Cc1cccc(C#N)c1 [Compound 177]
254 °C	COc1ccccc1Cc1c(C)[nH]n(-c2ccccn2)c1=O [Compound 192]
198 °C	CN(c1ccccc1)S(=O)(=O)c1ccc(-n2[nH]cc(Cc3ccccc3)c2=O)nc1 [Compound 153]
162 °C	CCC(C)(C)N(C)S(=O)(=O)c1ccc(-n2[nH]cc(Cc3cccnc3)c2=O)nc1 [Compound 145]
174 °C	O=c1c(Cc2ccccc2)c[nH]n1-c1ccc(S(=O)(=O)N(CC(O)CO)c2ccccc2)cn1 (stereo not drawn) [Compound 143, 6-(4-benzyl-5-oxo-2,5-dihydro-1H-pyrazol-1-yl)-N-(2,3-dihydroxypropyl)-N-phenylpyridine-3-sulfonamide]
165 °C	COc1ccc(Cc2c(C)[nH]n(-c3ccc(S(=O)(=O)N(C)C(C)(C)C)cn3)c2=O)nc1 [Compound 160]
157 °C	Cc1[nH]n(-c2ccccn2)c(=O)c1Cc1ccccc1C#N [Compound 172]
208 °C	Cc1[nH]n(-c2ccccn2)c(=O)c1Cc1ccncc1 (as salt: HCl) [Compound 176]
120 °C	COc1cccc(Cc2c(C)[nH]n(-c3ccccn3)c2=O)c1 [Compound 193]
184 °C	O=c1c(Cc2ccccc2)c[nH]n1-c1ccc(S(=O)(=O)N(C[C@H](O)CO)C2CCCC2)cn1 [Compound 148, 6-(4-benzyl-5-oxo-2,5-dihydro-1H-pyrazol-1-yl)-N-cyclopentyl-N-[(2S)-2,3-dihydroxypropyl]pyridine-3-sulfonamide]
110 °C	Cc1[nH]n(-c2ccccn2)c(=O)c1Cc1ccc(N(C)C)cc1 [Compound 189]

Second part, the molecule before the results:

SMILES	melting point
COc1cncc(Cc2c(C)[nH]n(-c3ccc(S(=O)(=O)N(C)C(C)(C)C)cn3)c2=O)c1 [Compound 102]	84 °C
CN(C1CCCC1)S(=O)(=O)c1ccc(-n2[nH]cc(Cc3cccnc3)c2=O)nc1 (as salt: HCl) [Compound 117]	124 °C
CCN(c1ccccc1)S(=O)(=O)c1ccc(-n2[nH]cc(CC3CCCC3)c2=O)nc1 [Compound 134]	170 °C
CCC(C)(C)NS(=O)(=O)c1ccc(-n2[nH]cc(Cc3cccnc3)c2=O)nc1 (as salt: HCl) [Compound 137]	126 °C
CN([C@@H]1CC[C@H](CO)C1)S(=O)(=O)c1ccc(-n2[nH]cc(Cc3ccccc3)c2=O)nc1 [Compound 138, 6-(4-benzyl-5-oxo-2,5-dihydro-1H-pyrazol-1-yl)-N-[(1R,3S)-3-(hydroxymethyl)cyclopentyl]-N-methylpyridine-3-sulfonamide]	108 °C
CCN(c1ccccc1)S(=O)(=O)c1ccc(-n2[nH]c(C)c(Cc3ccccc3C(=O)OC)c2=O)nc1 [Compound 116]	146 °C
CCNS(=O)(=O)c1ccc(-n2[nH]c(C)c(Cc3cccnc3)c2=O)nc1 (as salt: HCl) [Compound 89]	196 °C
CCN(C1CCCC1)S(=O)(=O)c1ccc(-n2[nH]cc(Cc3cccnc3)c2=O)nc1 (as salt: HCl) [Compound 115]	110 °C
CCN(c1ccccc1)S(=O)(=O)c1ccc(-n2[nH]c(C)c(Cc3cccnc3)c2=O)nc1 (as salt: hydrochloride) [Compound 43]	128 °C
CCN(c1ccccc1)S(=O)(=O)c1ccc(-n2[nH]c(C)c(Cc3cccc(OC)n3)c2=O)nc1 [Compound 78]	174 °C
COC(=O)[C@H]1CCC[C@H]1N(C)S(=O)(=O)c1ccc(-n2[nH]cc(Cc3cccnc3)c2=O)nc1 (as salt: HCl) [Compound 131]	156 °C
CCN(c1ccccc1)S(=O)(=O)c1ccc(-n2[nH]c(C)c(Cc3ccc(OCCN(C)C)cc3)c2=O)nc1 [Compound 49]	178 °C
Cc1[nH]n(-c2ccc(S(=O)(=O)N(C(C)C)C(C)C)cn2)c(=O)c1Cc1ccc(Cl)cc1Cl [Compound 15]	226 °C

Source: patent publication US8541455B2, “Derivatives of 2-pyridin-2-yl-pyrazol-3(2H)-one, preparation and therapeutic use thereof as HIF activators” (Sanofi, priority 2008, dated 2013)
